Data as given in patent US8871767B2, “2-arylimidazo[1,2-B]pyridazine, 2-phenylimidazo[1,2-A]pyridine, and 2-phenylimidazo[1,2-A]pyrazine derivatives” (Hengrui (USA) Ltd., priority 2010, dated 2014).

The compounds below were run on Hedgehog pathway activation (GLi-luciferase reporter) in Shh Light II reporter cells (assay: Hedgehog pathway activation on Shh Light II reporter cells measured by luciferase activity). Conditions: Mus musculus, Shh Light II, hShh activation, read-out: Shh (IC50, inhibition of Hedgehog pathway activation).
Format: cell-based
Method: Hedgehog conditioned media was obtained by transfecting 293H cells with the full length gene encoding human Sonic Hedgehog (hShh) inserted into the pCMV6 expression vector, which contains a neomycin selectable marker and expresses the protein of interest with a C-terminal FLAG affinity tag. After selection in G418 containing media, conditioned media from Hedgehog expressing clones were tested for the ability to activate the hedgehog-responsive GLi-luciferase reporter in the Shh Light II cell line obtained by license from John Hopkins University (Taipale J, et al. Effects of oncogenic mutations in Smoothened and Patched can be reversed by cyclopamine. Nature 406: 1005-1009, 2000).
A test compound library was screened against hShh and 500 nM SAG (a direct agonist of the Smoothened receptor) activated 10T1/2/Smo#3 cells and Shh Light II reporter cells for the ability to block Hedgehog pathway activation. Concurrently, cell viability was measured by utilizing Celltiter-Blue® (Promega, Madison Wis.) viability assay. Active compounds were defined as those that inhibited Hedgehog signaling by greater than 50% with no concurrent loss in cell viability.
Their inhibitory activity against Hedgehog pathway activation on 10T1/2/Smo#3 cells as measured by ALP activity and Shh Light II reporter cells as measured by luciferase activity is shown in Table 1 below. In Table 1, +++ stands for an IC50 value that is less than 0.3 μM, ++ between 0.3 and 3 μM, + between 3 and 30 μM.
Additional data for compounds of the invention is shown below in Table 2. Their inhibitory activities against Hedgehog pathway activation are shown as IC50 values in μM on 10T1/2/Smo#3 cells as measured by ALP activity, or on Shh Light II reporter cells as measured by luciferase activity (hShh activation).

Row | SMILES | IC50 [nM]
1 | CC(C)(C)C(=O)Nc1cc(-c2cn3nc(-c4cncc(N)c4)ccc3n2)ccc1C(F)(F)F [Example 343, N-(5-(6-(5-aminopyridin-3-yl)imidazo[1,2-b]pyridazin-2-yl)-2-(trifluoromethyl)phenyl)pivalamide] | 340
2 | CC(C)(C)C(=O)Nc1cc(-c2cn3nc(-c4cccs4)ccc3n2)ccc1C(F)(F)F [Example 230, N-(5-(6-(thiophen-2-yl)imidazo[1,2-b]pyridazin-2-yl)-2-(trifluoromethyl)phenyl)pivalamide] | 1550
3 | Cc1ccc(-c2cn3nc(-c4ccc(S(N)(=O)=O)cc4)ccc3n2)cc1NC(=O)C(C)(C)C [compound 534] | 1450
4 | CCOC(=O)C=Cc1cccc(C(=O)Nc2cc(-c3cn4nc(C=CC(=O)OCC)ccc4n3)ccc2C)c1 [compound 610] | 465
5 | Cc1ccc(-c2cn3nc(Cl)ccc3n2)cc1NS(=O)(=O)c1cccc(C=CC(=O)NO)c1 [compound 617] | 8600
6 | COc1cc(CNc2ccc3nc(-c4ccc(C)c(NC(=O)C(C)(C)C)c4)cn3n2)cc(OC)c1OC [compound 587] | 632
7 | Cc1noc(C)c1-c1ccc2nc(-c3ccc(C(F)(F)F)c(NC(=O)C(C)(C)C)c3)cn2n1 [Example 326, N-(5-(6-(3,5-dimethylisoxazol-4-yl)imidazo[1,2-b]pyridazin-2-yl)-2-(trifluoromethyl)phenyl)pivalamide] | 217
8 | Cc1ccc(-c2cn3nc(-c4ccc(C(F)(F)F)nc4)ccc3n2)cc1NC(=O)C(C)(C)C [Example 322, N-(2-methyl-5-(6-(6-(trifluoromethyl)pyridin-3-yl)imidazo[1,2-b]pyridazin-2-yl)phenyl)pivalamide] | 917
9 | COC(=O)CCCCC(=O)Nc1cc(-c2cn3nc(-c4cccnc4C(F)(F)F)ccc3n2)ccc1C [Example 421, methyl 6-(2-methyl-5-(6-(2-(trifluoromethyl)pyridin-3-yl)imidazo[1,2-b]pyridazin-2-yl)phenylamino)-6-oxohexanoate] | 3310
10 | COC(=O)c1csc(-c2cc(-c3cn4nc(-c5cccnc5C(F)(F)F)ccc4n3)ccc2C)n1 [compound 506] | 1340
11 | Cc1ccc(-c2cn3nc(-c4ccc(OCC(=O)NO)cc4C(F)(F)F)ccc3n2)cc1NC(=O)C(C)(C)C [Example 455, N-(5-(6-(4-(2-(hydroxyamino)-2-oxoethoxy)-2-(trifluoromethyl)phenyl)imidazo[1,2-b]pyridazin-2-yl)-2-methylphenyl)pivalamide] | 3460
12 | Cc1ccc(-c2cn3nc(-c4cc(C(F)(F)F)ccn4)ccc3n2)cc1NC(=O)C(C)(C)C [Example 456, N-(2-methyl-5-(6-(4-(trifluoromethyl)pyridin-2-yl)imidazo[1,2-b]pyridazin-2-yl)phenyl)pivalamide] | 365
13 | CCOC(=O)C=Cc1cccc(C(=O)Nc2cc(-c3cn4nc(Cl)ccc4n3)ccc2C)c1 [compound 609] | > 10000
14 | Cc1ccc(-c2cn3nc(Cl)ccc3n2)cc1NC(=O)C1(C)CC1 [compound 517] | > 10000
15 | Cc1ccc(-c2cn3nc(-c4cccnc4C(F)(F)F)ccc3n2)cc1C#N [Example 480, 2-methyl-5-(6-(2-(trifluoromethyl)pyridin-3-yl)imidazo[1,2-b]pyridazin-2-yl)benzonitrile] | 5190
16 | Cc1ccc(-c2cn3nc(-c4cccc(C(F)(F)F)n4)ccc3n2)cc1NC(=O)C(C)(C)C [Example 458, N-(2-methyl-5-(6-(6-(trifluoromethyl)pyridin-2-yl)imidazo[1,2-b]pyridazin-2-yl)phenyl)pivalamide] | 421
17 | Cc1ccc(F)c(-c2ccc3nc(-c4ccc(C(F)(F)F)c(NC(=O)C(C)(C)C)c4)cn3n2)c1 [Example 226, N-(5-(6-(2-fluoro-5-methylphenyl)imidazo[1,2-b]pyridazin-2-yl)-2-(trifluoromethyl)phenyl)pivalamide] | 1480
18 | Cc1ccc(-c2cn3nc(-c4cccnc4C(F)(F)F)ccc3n2)cc1-c1nc(C(C)(C)C)cs1 [compound 520] | 492
19 | Cc1ccc(-c2cn3nc(-c4cc(CO)ccc4F)ccc3n2)cc1NC(=O)C(C)(C)C [Example 275, N-(5-(6-(2-fluoro-5-(hydroxymethyl)phenyl)imidazo[1,2-b]pyridazin-2-yl)-2-methylphenyl)pivalamide] | 1800

Further lines, results first:

Row | IC50 [nM] | SMILES
20 | 1320 | Cc1ccc(-c2cn3nc(-c4cccc(NC(=O)CCCCCCC(=O)NO)n4)ccc3n2)cc1NC(=O)C(C)(C)C [compound 580, N1-hydroxy-N8-(6-(2-(4-methyl-3-pivalamidophenyl)imidazo[1,2-b]pyridazin-6-yl)pyridin-2-yl)octanediamide]
21 | > 10000 | Cc1ccc(-c2cn3nc(-c4ccc(C(=O)O)cc4)ccc3n2)cc1NC(=O)C(C)(C)C [compound 521]
22 | 339 | CC(C)(C)C(=O)Nc1cc(-c2cn3nc(N4CCC[C@@H]4CO)ccc3n2)ccc1C(F)(F)F [Example 469, (R)-N-(5-(6-(2-(hydroxymethyl)pyrrolidin-1-yl)imidazo[1,2-b]pyridazin-2-yl)-2-(trifluoromethyl)phenyl)pivalamide]
23 | 330 | Cc1ccc(-c2cn3nc(-c4c(C)nn(C)c4C)ccc3n2)cc1NC(=O)C(C)(C)C [compound 503]
24 | 947 | CCOC(=O)CCCCCNC1CCN(c2ccc3nc(-c4ccc(C)c(NC(=O)C(C)(C)C)c4)cn3n2)C1 (centres unmarked) [Example 414, ethyl 6-(1-(2-(4-methyl-3-pivalamidophenyl)imidazo[1,2-b]pyridazin-6-yl)pyrrolidin-3-ylamino)hexanoate]
25 | 925 | Cc1ccc(-c2cn3nc(-c4cccc(C(=O)NOC5CCCCO5)c4)ccc3n2)cc1NC(=O)C(C)(C)C (centres unmarked) [compound 585]
26 | 478 | CC(C)(C)OC(=O)NC1CCN(c2ccc3nc(-c4ccc(C(F)(F)F)c(NC(=O)C(C)(C)C)c4)cn3n2)CC1 [Example 331, tert-butyl 1-(2-(3-pivalamido-4-(trifluoromethyl)phenyl)imidazo[1,2-b]pyridazin-6-yl)piperidin-4-ylcarbamate]
27 | 937 | CN1CCN(c2ccc3nc(-c4ccc(C(F)(F)F)c(NC(=O)C(C)(C)C)c4)cn3n2)CC1 [Example 316, N-(5-(6-(4-methylpiperazin-1-yl)imidazo[1,2-b]pyridazin-2-yl)-2-(trifluoromethyl)phenyl)pivalamide]
28 | 6680 | Cc1ccc(-c2cn3nc(-c4ccc(NC(=O)CCCCCCC(=O)NO)cc4C(F)(F)F)ccc3n2)cc1NC(=O)C(C)(C)C [compound 530]
29 | 479 | Cc1ccc(-c2cn3nc(-c4ccc(C(=O)N(C)C)cc4)ccc3n2)cc1NC(=O)C(C)(C)C [compound 524]
30 | 763 | Cc1ccc(-c2cn3nc(-c4ccc(O)cc4Cl)ccc3n2)cc1NC(=O)C(C)(C)C [compound 548]
31 | 698 | CC(C)(C)C(=O)Nc1cc(-c2cn3nc(N4CCC(N)CC4)ccc3n2)ccc1C(F)(F)F [Example 332, N-(5-(6-(4-aminopiperidin-1-yl)imidazo[1,2-b]pyridazin-2-yl)-2-(trifluoromethyl)phenyl)pivalamide]
32 | 346 | Cc1ccc(-c2cn3nc(-c4ccc(C=CC(=O)O)cc4)ccc3n2)cc1NC(=O)C(C)(C)C [compound 555]
33 | 2050 | Cc1ccc(-c2cn3nc(-c4ccc(OCCCCC(=O)NO)cc4C(F)(F)F)ccc3n2)cc1NC(=O)C(C)(C)C [Example 454, N-hydroxy-5-(4-(2-(4-methyl-3-pivalamidophenyl)imidazo[1,2-b]pyridazin-6-yl)-3-(trifluoromethyl)phenoxy)pentanamide]
34 | 350 | Cc1ccc(-c2cn3nc(N4CCC(F)(F)C4)ccc3n2)cc1NC(=O)C(C)(C)C [Example 277, N-(5-(6-(3,3-difluoropyrrolidin-1-yl)imidazo[1,2-b]pyridazin-2-yl)-2-methylphenyl)pivalamide]
35 | 1980 | Cc1ccc(-c2cn3nc(-c4cncc(O)c4)ccc3n2)cc1NC(=O)C(C)(C)C [Example 405, N-(5-(6-(5-hydroxypyridin-3-yl)imidazo[1,2-b]pyridazin-2-yl)-2-methylphenyl)pivalamide]
36 | 498 | Cc1ccc(-c2cn3nc(-c4cccc(C(=O)NO)c4)ccc3n2)cc1NC(=O)C(C)(C)C [compound 589]
37 | 356 | CCOC(=O)C=Cc1ccc(-c2ccc3nc(-c4ccc(C)c(NC(=O)C(C)(C)C)c4)cn3n2)cc1 [compound 552]
38 | 783 | Cc1ccc(-c2cn3nc(-c4ccc(C(N)=O)cc4)ccc3n2)cc1NC(=O)C(C)(C)C [compound 526]
39 | 1060 | Cc1ccc(-c2cn3nc(C4=CCCC4)ccc3n2)cc1NC(=O)C(C)(C)C [Example 442, N-(5-(6-cyclopentenylimidazo[1,2-b]pyridazin-2-yl)-2-methylphenyl)pivalamide]
40 | 968 | Cc1ccc(-c2cn3nc(N4CCC(NCCCCCCC(=O)NO)C4)ccc3n2)cc1NC(=O)C(C)(C)C (centres unmarked) [Example 419, N-hydroxy-7-(1-(2-(4-methyl-3-pivalamidophenyl)imidazo[1,2-b]pyridazin-6-yl)pyrrolidin-3-ylamino)heptanamide]
41 | 578 | Cc1ccc(-c2cn3nc(N)ccc3n2)cc1NC(=O)C(C)(C)C [compound 591, N-(5-(6-aminoimidazo[1,2-b]pyridazin-2-yl)-2-methylphenyl)pivalamide]
